In patent publication EP1282680B1, “COMPOSITIONS COMPRISING CYCLODEXTRIN” (THE PROCTER & GAMBLE COMPANY, priority 2000, dated 2001):
Structures can show the parent of a compound that is named as a salt.

Tests used:
[1] = Elevation of surfactant surface tension in the presence of cyclodextrin; format: physicochemical; details: in the presence of a typical cyclodextrin like hydroxypropyl beta-cyclodextrin and methylated beta-cyclodextrin (1%)
Source text: Cyclodextrin-incompatible surfactants generally can be readily identified by the noticeable effect of cyclodextrin on the surface tension provided by the cyclodextrin-incompatible surfactant This is achieved by determining the surface tension (in dyne/cm) of aqueous solutions of the cyclodextrin-incompatible surfactant in the presence and in the absence of 1% of a specific cyclodextrin in the solutions. The aqueous solutions contain cyclodextrin-incompatible surfactant at concentrations of approximately 0.5%, 0.1%, 0.01%, and 0.005%. The cyclodextrin can affect the surface activity of a surfactant by elevating the surface tension of the surfactant solution. […]
Suitable cyclodextrin-compatible surfactants can also be readily identified by the absence of effect of cyclodextrin on the surface tension provided by the surfactant. […]

[2] = CD interaction of perfume components; format: physicochemical; details: weak = cyclodextrin-compatible; significant or strong = cyclodextrin-incompatible
Source text: The following table illustrates the molecular weight property of some of the cyclodextrin-incompatible enduring (hydrophobic) perfume materials (i.e. having significant or strong CD interaction) versus cyclodextrin-compatible perfume materials (i.e. having weak CD interaction).

[3] = Complexation constant with cyclodextrin, spectral displacement method with phenolphthalein; format: binding; details: unit not given, the text gives complexation constants in M^-1
Source text: (§1) A spectral displacement method with phenolphthalein is used to determine the complexation constant between cyclodextrin and a given material, especially for surfactants. This method of determining complexation constants with cyclodextrins is described in detail in the following references: Sasaki, KJ., Christian, S.D., and Tucker, E.E., "Study of the Stability of 1:1 Complexes Between Aliphatic Alcohols and b-Cyclodextrins in Aqueous Solution," Fluid Phase Equilibria, Vol. 49, (Amsterdam, Elsevier Science Publishers, 1989), pp. 281-89. Further information regarding spectral displacement methods can be found in other references, e.g. in Wilson, L.D., Siddall, S.R, and Verrall RE., "A Spectral Displacement Study of the Binding Constants of Cyclodextrin-Hydrocarbon and - Fluorocarbon Surfactant Inclusion Complexes," Canadian Journal of Chemistry, Vol. 75, (NRC Canada 1997), pp. 927-933.
The test method is based on the fact that phenolphthalein will complex with cyclodextrin and in complexed form is colorless. However, it has a strong color at pH 10.5 when in non-complexed form. Other, cyclodextrin-incompatible, materials themselves complex with the cyclodextrin and prevent the phenolphthalein from doing so. Thus the higher the complexation constant of the other component with cyclodextrin, the more non-complexed phenolphthalein will be present and the stronger the observed color.
The complexation constant of a given material with cyclodextrin is obtained by an absorbance measurement in the visible region at 550 nm that is performed with a spectrophotometer at room temperature. All solutions are prepared in 4.0 x 10^-3 mol/l Na2CO3 solution to maintain a constant pH. The concentration of phenolphthalein is kept constant at 3.0 x 10^-5 mol/l. Cyclodextrin concentration and surfactant concentration are varied. Here, optimum parameter values for absorption coefficient of phonolphthalein at 550 nm is 33,000 M^-1 cm^-1, and the complexation constants of phenolphthalein with cyclodextrin and cyclodextrin derivatives are preliminary obtained. […] Complexation constants of cyclodextrin-compatible and/or cyclodextrin-incompatible materials arc determined with using the free, uncomplexed phenolphthalein concentration obtained by absorbance at 550 nm.

[4] = cited from earlier work
[5] = Complexation constant of phenolphthalein with beta-cyclodextrin, absorbance at 550 nm; format: binding; details: room temperature, 4.0 x 10^-3 mol/l Na2CO3 solution, pH 10.5
Source text: as §1, with “927-933. […]” for “927-933.”
The complexation constant of a given material with cyclodextrin is obtained by an absorbance measurement in the visible region at 550 nm that is performed with a spectrophotometer at room temperature. […] Complexation constants of cyclodextrin-compatible and/or cyclodextrin-incompatible materials arc determined with using the free, uncomplexed phenolphthalein concentration obtained by absorbance at 550 nm.

Row | Molecule | CD interaction [2] | further results
1 | dodecanolpoly(6)ethoxylate |  | elevation in surface tension [1]: > 10%
2 | CC(=O)C1(C)CC2=C(CCCC2(C)C)CC1C (centres unmarked) [Iso-E Super] | weak | 
3 | CCCCCCCCCCCC[N+](C)(C)C.[Br-] [Dodecyltrimethylammonium bromide] |  | Complexation Constant (K) [3]: about 18100
4 | [H]/N=C(\N/C(=N/[H])NCCCCCCNC(=N)NC(=N)Nc1ccc(Cl)cc1)Nc1ccc(Cl)cc1 [diacetate salt, 1,1'-hexamethylene bis(5-(p-chlorophenyl)biguanide)] |  | solubility in water [4]: 1.8%
5 | CCCCCCCCCCCCCC(=O)OC(C)C [Iso-propyl Myristate] | weak | 
6 | Lauramine oxide |  | Complexation Constant (K) [3]: about 7500
7 | CC(C=O)Cc1ccc(C(C)(C)C)cc1 (centres unmarked) [Lilial, p-t-bucinal] | strong | 
8 | CCCCCC1C(=O)CCC1CC(=O)OC (centres unmarked) [Methyl Dihydro Jasmonate] | weak | 
9 | CC1COCc2cc3c(cc21)C(C)(C)C(C)C3(C)C (centres unmarked) [Galaxolide] | weak | 
10 | CC(=O)OC1CCC(C(C)(C)C)CC1 (centres unmarked) [Vertenex, para-tert-butylcyclohexyl acetate] | strong | 
11 | CC(C=O)Cc1ccc(C(C)C)cc1 (centres unmarked) [Cymal] | strong | 
12 | CCC(=O)OC1CC2CC1C1CC=CC21 (centres unmarked) [Frutene] | strong | 
13 | CCOC(=O)c1ccccc1C(=O)OCC [Diethyl Phthalate] | weak | 
14 | Lawreth-6 |  | Complexation Constant (K) [3]: about 10000
15 | CC(=O)OC1CC2CC1C1CC=CC21 (centres unmarked) [Flor Acetate] | strong | 
16 | CC(=O)OC(C)(C)C1CC=C(C)CC1 (centres unmarked) [Terpinyl Acetate] | significant | 
17 | CC(=O)C(C)=C(C)C(C)C(C)(C)C (centres unmarked) [Koavone] | strong | 
18 | O=C(Cc1ccccc1)OCCc1ccccc1 [Phenyl-Ethyl-Phenyl Acetate] | weak | 
19 | CCCCCCC(C=O)=Cc1ccccc1 [Hexyl cinnamic Aldehyde] | weak | 
20 | [H]/N=C(\N/C(=N/[H])NCCCCCCNC(=N)NC(=N)Nc1ccc(Cl)cc1)Nc1ccc(Cl)cc1 [digluconate salt, 1,1'-hexamethylene bis(5-(p-chlorophenyl)biguanide)] |  | solubility in water [4]: 70%
21 | CCC(C)(O)CCCC(C)C (centres unmarked) [Tetrahydrolinalol] | significant | 
22 | O=C1OC(c2ccc(O)cc2)(c2ccc(O)cc2)c2ccccc21 [phenolphthalein] |  | complexation constant of phenolphthalein with beta-cyclodextrin [5]: about 21,000 M^-1
23 | CC(C)(O)CCCC1=CCC(C=O)CC1 (centres unmarked) [Lyral] | weak | 
24 | a-Me Ionone | strong | 
25 | CC(=O)/C=C/C1C(C)=CCCC1(C)C (centres unmarked) [a-ionone] | strong | 
26 | CCCCCCCCCCCC(=O)[O-].[Na+] [Sodium laurate] |  | Complexation Constant (K) [3]: about 16000
27 | CCCCCCCCCCCCOS(=O)(=O)[O-].[Na+] [Sodium dodecyl sulfate] |  | Complexation Constant (K) [3]: about 22000; elevation in surface tension [1]: > 10%
28 | CCCCCCOC(=O)c1ccccc1O [Hexyl Salicylate] | weak | 
